In publication PMC6100633, “Design, Synthesis, and Evaluation of a New Series of Thiazole-Based Anticancer Agents as Potent Akt Inhibitors” (Molecules : A Journal of Synthetic Chemistry and Natural …, 2018):
≈ marks a conversion by molar mass, not a printed value.

Legend:
[1] = tested on: A549 human lung adenocarcinoma cell line; test: MTT assay, A549 cells; type: cell-based; conditions: Homo sapiens, A549, 24 h
Experimental: (§1) C6 Rat glioma and NIH/3T3 mouse embryonic fibroblast cells were incubated in Dulbecco’s Modified Eagle’s Medium (DMEM) (Sigma, Deisenhofen, Germany) supplemented with 10% fetal calf serum (Gibco, Paisley, UK). A549 Human lung adenocarcinoma cells were incubated in 90% RPMI supplemented with 10% fetal bovine serum (Gibco, Paisley, UK). All media were supplemented with 100 IU/mL penicillin-streptomycin (Gibco, Paisley, UK) and the cells were incubated at 37 °C in a humidified atmosphere of 95% air and 5% CO2. Exponentially growing cells were plated at 2 × 10^4 cells/mL into 96-well microtiter tissue culture plates (Nunc, Roskilde, Denmark) and incubated for 24 h before the addition of the drugs (the optimum cell number for cytotoxicity assays was determined in preliminary experiments). The stock solutions of the compounds were prepared in dimethyl sulfoxide (DMSO; Sigma Aldrich, Poole, UK) and further dilutions were made with fresh culture medium (the concentration of DMSO in the final culture medium was <0.1% which had no effect on the cell viability).
(§2) The level of cellular 3-(4,5-dimethylthiazol-2-yl)-2,5-diphenyltetrazolium bromide (MTT) (Sigma-Aldrich, St. Louis, MO, USA) reduction was quantified as previously described in the literature with small modifications. […] At the end of this period, MTT was added to a final concentration of 0.5 mg/mL and the cells were incubated for 4 h at 37 °C. After the medium was removed, the formazan crystals formed by MTT metabolism were solubilized by addition of 200 µL DMSO to each well and absorbance was read at 540 nm with a microtiter plate spectrophotometer (BioTek Plate Reader, Winooski, VT, USA). Every concentration was repeated in three wells.

A549 cells = test: Annexin V FITC/PI flow cytometric analysis of apoptosis, A549 cells; type: cell-based, human; conditions: 24 h, compounds at IC50 values
Experimental: (§3) Annexin V staining protocol was applied according to the manufacturer’s instructions (BD Pharmingen, San Jose, CA, USA). The cells were then briefly washed with cold phosphate buffer saline (PBS) and suspended in a binding buffer at a concentration of 1 × 10^6 cells/mL. Then, 100 µL of this solution containing 1 × 10^5 cells was transferred to a 5 mL test tube. After 5 µL of Annexin V and PI was added, the cells were incubated for 15 min at room temperature in the dark. Then 400 µL of 1× binding buffer was added to each tube and the cells were processed for data acquisition, and analyzed on a BD FACSAria flow cytometer using FACSDiva version 6.1.1 software (BD Biosciences, San Jose, CA, USA).

Akt [2] = test: In cell ELISA colorimetric Akt activity, A549 cells; type: cell-based, human; conditions: compounds at IC50 concentrations for 24 h
Experimental: (§4) Briefly, the media was removed and 100 µL of 4% formaldehyde was added to each well. The plate was incubated in a fume hood at room temperature for 15 min. Formaldehyde was removed and the plate was washed twice with 100 µL/well of 1× TBS. Then, 1× TBS was removed, 100 µL/well of 1× permeabilization buffer was added and incubated for 15 min at room temperature. The permeabilization buffer was removed and the plate was washed once with 100 µL/well of 1× TBS. Then, 1× TBS was removed, 100 µL/well quenching solution was added and incubated at room temperature for 20 min. Quenching solution was removed and the plate was washed once with 100 µL/well of 1× TBS. Then, 1× TBS was removed and 100 µL/well of blocking buffer was added and incubated at room temperature for 30 min. After the blocking buffer was removed, 50 µL/well of primary antibody was added. A plate sealer was applied and incubated overnight at 4 °C. The primary antibody solution was removed and the plate was washed three times with 100 µL/well of 1× wash Buffer. After the wash buffer was removed, 100 µL/well of diluted HRP conjugate was added and incubated for 30 min at room temperature. The wash buffer was removed and 100 µL/well of TMB substrate was added. The plate was then incubated at room temperature, protected from light. 100 µL/well of TMB stop solution was added and the absorbance was measured at 450 nm within 30 min of stopping the reaction. The experiment was performed in triplicate wells. The values of blank wells were subtracted from each well of treated and control cells. Percent Akt activity was defined as the relative absorbance of treated versus untreated control cells.

C6 cells = test: Annexin V FITC/PI flow cytometric analysis of apoptosis, C6 cells; type: cell-based, rat; conditions: C6 cells, 24 h, compounds at IC50 values
Experimental: as §3

[3] = tested on: NIH/3T3 mouse embryonic fibroblast cell line; test: MTT assay, NIH/3T3 cells (healthy); type: cell-based; conditions: NIH3T3, 24 h
Experimental: as §1, with “viability). The level of cellular 3-(4,5-dimethylthiazol-2-yl)-2,5-diphenyltetrazolium bromide (MTT) (Sigma-Aldrich, St. Louis, MO, USA) reduction was quantified as previously described in the literature with small modifications. […] At the end of this period, MTT was added to a final concentration of 0.5 mg/mL and the cells were incubated for 4 h at 37 °C. After the medium was removed, the formazan crystals formed by MTT metabolism were solubilized by addition of 200 µL DMSO to each well and absorbance was read at 540 nm with a microtiter plate spectrophotometer (BioTek Plate Reader, Winooski, VT, USA). Every concentration was repeated in three wells.” for “viability).”

Akt [4] = test: In cell ELISA colorimetric Akt activity, C6 cells; type: cell-based, rat; conditions: compounds at IC50 concentrations for 24 h
Experimental: as §4

C6 rat glioma cell line = test: MTT assay, C6 cells; type: cell-based; conditions: Rattus norvegicus, C6, 24 h
Experimental: as §1, §2

## N#Cc1ccc(Oc2ccc(C=NNC(N)=S)cc2)cc1 [Compound A, 4-(4-Cyanophenoxy)benzaldehyde thiosemicarbazone]
[1]
  IC50: 92.5 ± 3.54 µg/mL (≈ 312 µM)
A549 cells
  Early Apoptotic Cells%: 7.6%
  Late Apoptotic Cells%: 45.9%
  Viable Cells%: 24.2%
Akt [2]
  Akt Inhibition % A549 Cell Line: 68.08 ± 2.48%
C6 cells
  Early Apoptotic Cells%: 3.2%
  Late Apoptotic Cells%: 13.1%
  Viable Cells%: 70.2%
other
  melting point: 235 to 236 °C
[3]
  IC50: 225 ± 18 µg/mL (≈ 759 µM)
Akt [4]
  Akt Inhibition % C6 Cell Line: 25.23 ± 8.62%
C6 rat glioma cell line
  IC50: 26.3 ± 1.53 µg/mL (≈ 88.8 µM)
